Among the data in patent US6015900A, “N-aminoalkylfluorenecarboxamides” (Neurogen Corporation, priority 1998, dated 2000) are Ki values, retold here.

By Ki is commonly meant a measure of affinity in units of concentration, obtained from inhibition or displacement.

The target of one assay is D2 receptors (Chlorocebus aethiops, UniProt P52702). Description: biochemical. It is filed as binding, African Green monkey.
The target in a further assay is D3 receptors (Chlorocebus aethiops, UniProt P52703). The assay can be described thus: biochemical. It is filed as binding, African Green monkey.
[1] abbreviates: COS cells containing recombinant D2 receptors, 0.5 nM ^3 H-YM 09151-2, nonspecific binding with 1 mM spiperone, read-out: D2 Ki.
The mark [2] stands for this setting: COS cells containing recombinant D3 receptors, 0.5 nM ^3 H-YM 09151-2, nonspecific binding with 1 mM spiperone, read-out: D3 Ki.

Counter-ions that a name gives are not always drawn. Like-named read-outs stand apart in the source and are kept apart here.

D3 receptors, sequence (P52703 whole entry): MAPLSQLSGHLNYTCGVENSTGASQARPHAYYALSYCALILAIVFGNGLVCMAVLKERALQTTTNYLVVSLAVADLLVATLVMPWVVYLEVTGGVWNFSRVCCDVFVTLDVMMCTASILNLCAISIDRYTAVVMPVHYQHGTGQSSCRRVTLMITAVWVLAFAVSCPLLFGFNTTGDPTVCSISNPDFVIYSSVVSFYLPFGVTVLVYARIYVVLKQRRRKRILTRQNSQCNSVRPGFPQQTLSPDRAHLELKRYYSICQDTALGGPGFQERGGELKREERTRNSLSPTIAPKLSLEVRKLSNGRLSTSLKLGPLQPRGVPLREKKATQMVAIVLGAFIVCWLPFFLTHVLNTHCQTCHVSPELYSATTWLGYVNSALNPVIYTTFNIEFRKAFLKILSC
D2 receptors, sequence (P52702 whole entry): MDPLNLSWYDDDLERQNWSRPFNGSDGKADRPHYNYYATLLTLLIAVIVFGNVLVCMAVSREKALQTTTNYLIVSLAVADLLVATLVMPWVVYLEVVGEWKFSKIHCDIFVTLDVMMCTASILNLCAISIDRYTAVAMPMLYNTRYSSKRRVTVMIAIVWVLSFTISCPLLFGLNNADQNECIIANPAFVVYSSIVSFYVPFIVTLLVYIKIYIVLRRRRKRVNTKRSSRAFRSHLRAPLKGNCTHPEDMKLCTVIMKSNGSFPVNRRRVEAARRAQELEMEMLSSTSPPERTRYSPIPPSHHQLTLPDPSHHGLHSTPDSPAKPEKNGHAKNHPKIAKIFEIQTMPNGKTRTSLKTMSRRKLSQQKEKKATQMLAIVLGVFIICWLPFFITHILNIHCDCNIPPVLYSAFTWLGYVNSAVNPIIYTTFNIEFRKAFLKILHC
Method for D2 receptors: (§1) Pellets of COS cells containing recombinantly produced D2 or D3 receptors from African Green monkey were used for the assays. The sample is homogenized in 100 volumes (w/vol) of 0.05 M Tris HCl buffer at 4° C. and pH 7.4. The sample is then centrifuged at 30,000×g and resuspended and rehomogenized. The sample is then centrifuged as described and the final tissue sample is frozen until use. The tissue is resuspended 1:20 (wt/vol) in 0.05 M Tris HCl buffer containing 100 mM NaCl.
(§2) Incubations are carried out at 48° C. and contain 0.4 ml of tissue sample, 0.5 nM ^3 H-YM 09151-2 and the compound of interest in a total incubation of 1.0 ml. Nonspecific binding is defined as that binding found in the presence of 1 mM spiperone; without further additions, nonspecific binding is less than 20% of total binding.
Method for D3 receptors: as §1, §2

As for `O=C(NCCCCN1CCN(c2ccccc2Cl)CC1)c1ccc2c(c1)C(=O)c1ccccc1-2` [Compound 3, N-{4-[4-(2-Chlorophenyl)-1-piperazinyl]butyl}-9-oxo-fluorene-2-arboxamide hydrochloride], the Ki at D2 receptors (setting [1]) stood at 97 nM; on D3 receptors (setting [2]), 0.7 nM.
With `O=C(NCCCCN1CCN(c2cccc(Cl)c2Cl)CC1)c1ccc2c(c1)Cc1ccccc1-2` [Compound 1, N-{4-[4-(2,3-dichlorophenyl)-1-piperazinyl]butyl}-9H-fluorene-2-carboxamidehydrochloride], the figures for the inhibition constant Ki at D2 receptors and on D3 receptors were 729 nM and 3 nM, respectively.
On to `O=C(NCCCCN1CCN(c2cccc3ccccc23)CC1)c1ccc2c(c1)Cc1ccccc1-2` [Compound 2, N-{4-[4-(1-Naphthyl)-1-piperazinyl]butyl}-9H-fluorene-2-carboxamide hydrochloride], for which the Ki is 150 nM on D2 receptors (setting [1]) and 1 nM on D3 receptors (setting [2]).
